Results taken from ChEMBL document CHEMBL1201862, “PubChem BioAssay data set” (2004).
Activity calls are given as the source filed them.

What was measured:
[1] = biological target: T1, Aminopeptidase N (Plasmodium falciparum FcB1/Columbia, UniProt O96935); assay: malaria alanyl aminopeptidase activity blockers – biochemical, fluorogenic H-Leu-NHMec substrate, 1536-well (AID 1445); design: species or system Plasmodium falciparum 3D7, 3D7
T1 sequence (O96935 whole entry): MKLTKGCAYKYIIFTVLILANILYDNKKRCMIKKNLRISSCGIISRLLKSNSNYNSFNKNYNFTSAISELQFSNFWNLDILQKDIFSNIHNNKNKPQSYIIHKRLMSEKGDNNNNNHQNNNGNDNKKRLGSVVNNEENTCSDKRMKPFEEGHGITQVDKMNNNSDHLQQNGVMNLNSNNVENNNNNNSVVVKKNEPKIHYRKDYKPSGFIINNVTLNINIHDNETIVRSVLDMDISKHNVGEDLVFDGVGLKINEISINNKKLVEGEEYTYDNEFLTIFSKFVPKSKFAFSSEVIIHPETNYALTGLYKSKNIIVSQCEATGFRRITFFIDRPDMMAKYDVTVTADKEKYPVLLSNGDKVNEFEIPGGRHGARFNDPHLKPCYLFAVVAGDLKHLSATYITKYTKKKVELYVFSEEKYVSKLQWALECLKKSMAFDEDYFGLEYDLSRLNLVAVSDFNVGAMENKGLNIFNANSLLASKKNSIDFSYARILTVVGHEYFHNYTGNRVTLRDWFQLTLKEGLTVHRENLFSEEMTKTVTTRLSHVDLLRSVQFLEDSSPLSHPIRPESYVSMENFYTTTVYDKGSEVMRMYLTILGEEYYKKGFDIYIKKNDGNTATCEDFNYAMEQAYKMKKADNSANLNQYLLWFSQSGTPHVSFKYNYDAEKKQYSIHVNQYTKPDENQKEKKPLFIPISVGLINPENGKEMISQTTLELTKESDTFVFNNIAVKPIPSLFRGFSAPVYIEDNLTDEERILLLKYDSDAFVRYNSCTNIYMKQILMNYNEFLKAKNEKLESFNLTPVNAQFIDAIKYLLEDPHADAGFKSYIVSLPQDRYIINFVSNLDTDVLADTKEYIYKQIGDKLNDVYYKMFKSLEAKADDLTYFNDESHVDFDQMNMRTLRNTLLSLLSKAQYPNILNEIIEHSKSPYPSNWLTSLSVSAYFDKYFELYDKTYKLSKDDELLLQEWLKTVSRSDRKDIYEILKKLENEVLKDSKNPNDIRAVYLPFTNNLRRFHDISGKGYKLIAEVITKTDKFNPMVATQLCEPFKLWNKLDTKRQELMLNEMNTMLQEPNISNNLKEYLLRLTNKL

[2] = microbe, parasite or virus in culture; assay type: functional; conditions: Mycobacterium tuberculosis
[3] = Vero E6 cell cytotoxicity, dose response, cytotoxicity control for non-replicating M. tuberculosis project, secondary assay (AID 492998); assay type: functional, VeroE6; conditions: Vero C1008
[4] = cells; assay type: functional
[5] = IC50 of Artemis nuclease activity blockers – biochemical, fluorescence intensity, dose response (AID 720701); assay type: functional;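 further: Artemis endonuclease enzyme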
[6] = blockers of FN fibrillogenesis by fibroblasts – AH1F cells, Alexa488-FN fluorescence, cherry-picks, dose response (AID 1035475); assay type: functional, cell-based
[7] = reduction of Shn3 3'UTR-driven luciferase in osteoblasts – cell-based, Clone20 osteoblasts, firefly luciferase, cherry-picked, dose response (AID 624132); assay type: functional;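 further: firefly luciferase luminescence from reporter carrying the Shn3 3'UTR in osteoblasts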
[8] = non-specific 3'UTR reporter inhibition in Clone20-Shn3RL – cell-based, Renilla luciferase, cherry-picked, counter-screen for Shn3 inhibitor project, dose response (AID 624133); assay type: functional
[9] = Shn3 3'UTR reporter signal decrease – cell-based, Clone20 osteoblasts, firefly luciferase, cherry-pick, set 2, Schnurri-3 inhibitor project, dose response (AID 720490); assay type: functional;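 further: actives lower the luminescence signal as inhibitors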
[10] = EF1alpha-driven Renilla reporter with control 3'UTR suppression – Clone20-Shn3RL cells, dual-Glo, cherry-pick, set 2, counter-screen for Shn3 3'UTR targeting project, dose response (AID 720724); assay type: functional, cell-based; conditions: Dual-Go Shn3RL
[11] = A Cell-Based Confirmatory Screen for Compounds that Inhibit VEEV, TC-83 (8).; assay type: functional
[12] = biological target: Paired box protein Pax-8 (Homo sapiens, UniProt Q06710); assay: PAX8 transcriptional activity inhibition in RMG-I – RMG-I cells, luciferase, cherry-pick, dose response (AID 687027); assay type: functional, cell-based;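 further: luciferase reporter driven by Pax8 target thyroperoxidase promoter measured by SteadyGlo luminescence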
Paired box protein Pax-8, sequence (Q06710 whole entry): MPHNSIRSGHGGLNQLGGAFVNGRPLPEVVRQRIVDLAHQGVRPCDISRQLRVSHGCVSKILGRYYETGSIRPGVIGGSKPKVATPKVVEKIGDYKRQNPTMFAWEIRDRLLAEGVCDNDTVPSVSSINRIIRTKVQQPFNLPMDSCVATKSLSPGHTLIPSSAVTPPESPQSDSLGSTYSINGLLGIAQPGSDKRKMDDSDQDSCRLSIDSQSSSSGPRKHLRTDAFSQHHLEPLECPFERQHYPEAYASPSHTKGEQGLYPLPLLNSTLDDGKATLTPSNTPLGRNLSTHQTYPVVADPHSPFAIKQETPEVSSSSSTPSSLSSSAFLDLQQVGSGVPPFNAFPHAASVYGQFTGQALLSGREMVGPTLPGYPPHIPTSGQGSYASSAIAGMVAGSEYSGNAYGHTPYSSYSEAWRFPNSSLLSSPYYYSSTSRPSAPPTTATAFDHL

[13] = A2780 cell killing – plate reader, dry powder samples, cytotoxicity control, dose response (AID 743046); assay type: functional, cell-based
[14] = OVCAR-3 cell viability loss – plate reader, dry powder samples, PAX8 inhibitor project, dose response (AID 743044); assay type: functional, cell-based
[15] = IGROV1 cell killing – plate reader, dry powder samples, PAX8 inhibitor project, dose response (AID 743043); assay type: functional, cell-based; conditions: IGROV-1
[16] = OVCAR8 cell viability loss – plate reader, dry powder samples, PAX8 project, dose response (AID 743197); assay type: functional, cell-based; conditions: OVCAR-8
[17] = biological target: T2, Rac GTPase-activating protein 1 (Homo sapiens, UniProt Q9H0H5); assay: blockers of MgcRacGAP-driven Rac1 GTP hydrolysis – biochemical, ADP Hunter fluorescence, primary and confirmatory, confirmation (AID 624330); assay type: functional
T2 sequence (Q9H0H5 whole entry): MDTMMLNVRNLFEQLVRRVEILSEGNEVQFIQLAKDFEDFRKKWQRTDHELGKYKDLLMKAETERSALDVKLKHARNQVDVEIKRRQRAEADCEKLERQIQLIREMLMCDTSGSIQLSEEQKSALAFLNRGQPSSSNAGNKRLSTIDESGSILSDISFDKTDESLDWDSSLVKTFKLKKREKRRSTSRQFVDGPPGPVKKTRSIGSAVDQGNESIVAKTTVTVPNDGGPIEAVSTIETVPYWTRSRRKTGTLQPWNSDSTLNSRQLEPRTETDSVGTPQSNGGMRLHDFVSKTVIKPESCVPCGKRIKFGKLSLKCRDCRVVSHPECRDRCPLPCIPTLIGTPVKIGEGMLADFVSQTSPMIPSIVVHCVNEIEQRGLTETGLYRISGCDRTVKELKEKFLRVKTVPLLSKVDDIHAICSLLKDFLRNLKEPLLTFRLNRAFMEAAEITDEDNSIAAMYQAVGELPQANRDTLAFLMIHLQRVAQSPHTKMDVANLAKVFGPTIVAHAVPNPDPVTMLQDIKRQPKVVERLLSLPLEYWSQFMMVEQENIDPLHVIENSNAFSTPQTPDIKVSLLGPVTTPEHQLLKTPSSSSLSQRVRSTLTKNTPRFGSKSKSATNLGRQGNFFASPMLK

[18] = biological target: fMet-Leu-Phe receptor (Homo sapiens, UniProt P21462); assay: formyl peptide receptor binders – dose response (AID 519); assay type: functional
fMet-Leu-Phe receptor, sequence (P21462 whole entry): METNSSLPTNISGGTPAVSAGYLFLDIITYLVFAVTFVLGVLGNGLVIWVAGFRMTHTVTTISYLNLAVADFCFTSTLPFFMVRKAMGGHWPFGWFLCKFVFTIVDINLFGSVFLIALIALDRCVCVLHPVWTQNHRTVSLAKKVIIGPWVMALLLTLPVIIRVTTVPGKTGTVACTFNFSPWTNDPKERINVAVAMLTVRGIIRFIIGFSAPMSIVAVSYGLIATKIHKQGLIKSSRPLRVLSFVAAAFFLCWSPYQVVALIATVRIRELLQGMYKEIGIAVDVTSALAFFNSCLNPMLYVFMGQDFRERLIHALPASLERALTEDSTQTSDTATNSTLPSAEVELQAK

[19] = biological target: Luciferin 4-monooxygenase (Photinus pyralis, UniProt P08659); assay: inhibition of purified Photinus pyralis luciferase – biochemical, luminescence, dose response (AID 1891)
Luciferin 4-monooxygenase, sequence (P08659 whole entry): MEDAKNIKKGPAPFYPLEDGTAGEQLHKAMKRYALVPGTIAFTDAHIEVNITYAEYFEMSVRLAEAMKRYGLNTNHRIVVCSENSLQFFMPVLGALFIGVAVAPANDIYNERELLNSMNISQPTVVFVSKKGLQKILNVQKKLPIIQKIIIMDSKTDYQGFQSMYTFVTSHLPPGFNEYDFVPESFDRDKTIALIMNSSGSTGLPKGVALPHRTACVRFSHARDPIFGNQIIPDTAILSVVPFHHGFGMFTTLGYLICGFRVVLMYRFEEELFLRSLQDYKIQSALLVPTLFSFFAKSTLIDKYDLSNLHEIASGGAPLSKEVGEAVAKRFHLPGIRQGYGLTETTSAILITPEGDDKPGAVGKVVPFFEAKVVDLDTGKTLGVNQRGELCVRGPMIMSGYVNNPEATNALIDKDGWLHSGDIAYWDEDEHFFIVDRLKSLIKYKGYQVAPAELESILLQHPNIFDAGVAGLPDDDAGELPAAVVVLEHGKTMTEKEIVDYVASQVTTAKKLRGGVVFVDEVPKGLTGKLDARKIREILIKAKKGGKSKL

[20] = Luminescence Cell-Based Dose Confirmation HTS to Identify Inhibitors of Platelet Dense Granule Release. [Related pubchem assays: 1663 (Primary HTS), 1678 (Summary of Project)]; assay type: functional
[21] = viability loss in HepG2 hepatoma cells – cell-based, ATP luminescence, cherry-pick, activator set 2, cytotoxicity control, dose response (AID 1053143); assay type: functional
[22] = biological target: Delta-type opioid receptor (Homo sapiens, UniProt P41143); assay: Late-stage results from the probe development effort to identify antagonists of OPRK1: fluorescence-based cell-based dose response OPRD1 counterscreen.; assay type: functional
Delta-type opioid receptor, sequence (P41143 whole entry): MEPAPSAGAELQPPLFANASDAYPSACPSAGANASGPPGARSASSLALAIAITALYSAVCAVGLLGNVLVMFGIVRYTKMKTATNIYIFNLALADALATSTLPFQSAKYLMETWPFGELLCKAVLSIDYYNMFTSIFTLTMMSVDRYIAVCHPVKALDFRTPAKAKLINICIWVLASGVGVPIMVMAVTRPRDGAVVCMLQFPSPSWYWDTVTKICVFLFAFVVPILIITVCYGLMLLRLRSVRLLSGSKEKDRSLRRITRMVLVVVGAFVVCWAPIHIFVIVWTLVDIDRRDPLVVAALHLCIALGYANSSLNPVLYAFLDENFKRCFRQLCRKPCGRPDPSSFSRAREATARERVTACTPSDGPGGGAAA

[23] = biological target: Mu-type opioid receptor (Homo sapiens, UniProt P35372); assay: Late-stage results from the probe development effort to identify antagonists of OPRK1: luminescence-based cell-based dose response OPRM1 counterscreen.; assay type: functional
Mu-type opioid receptor, sequence (P35372 whole entry): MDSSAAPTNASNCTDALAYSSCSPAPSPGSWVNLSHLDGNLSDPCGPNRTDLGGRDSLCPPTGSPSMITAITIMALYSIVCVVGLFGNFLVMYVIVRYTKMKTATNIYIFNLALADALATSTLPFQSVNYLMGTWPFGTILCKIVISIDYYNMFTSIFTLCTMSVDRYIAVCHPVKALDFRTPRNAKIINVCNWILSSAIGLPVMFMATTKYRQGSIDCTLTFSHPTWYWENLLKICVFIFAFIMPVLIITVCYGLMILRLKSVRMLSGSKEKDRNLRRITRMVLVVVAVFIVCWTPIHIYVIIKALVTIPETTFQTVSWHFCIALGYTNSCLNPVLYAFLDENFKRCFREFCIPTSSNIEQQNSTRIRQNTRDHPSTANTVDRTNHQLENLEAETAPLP

[24] = Trypanosoma cruzi growth suppression in host cells – NIH3T3 host cells, beta-gal luminescence, confirmation (AID 2044); assay type: functional, cell-based;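 further: intracellular parasites grown in NIH/3T3 mouse fibroblasts as host cells; luminescent beta-galactosidase reporter signal from transgenic T. cruzi replicating inside host cells; inhibitors lower the luminescence signal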
[25] = NIH3T3 cell viability loss – ATP luminescence, mouse fibroblasts, counter-screen, dose response (AID 2010); assay type: functional, cell-based;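 further: cells exposed to compound for about 90 hours before reading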
[26] = general mammalian cell viability loss – activator set, cherry-pick, cytotoxicity control for miR-122 modulator project, dose response (AID 720690); assay type: functional, cell-based;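 further: HEK293T human cells scored for general mammalian cytotoxicity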
[27] = cytotoxicity in MITF-independent A375 cells – cell-based, CellTiter-Glo luminescence, dry powder, set 4, counter-screen for MITF inhibitor project, dose response (AID 624364); assay type: functional; conditions: A-375;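 further: A375 melanoma cells are MITF independent so this is a counter screen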
[28] = viability loss in MITF-independent A375 cells – cell-based, CellTiter-Glo luminescence, dry powder, set 2, counter-screen for MITF inhibitor project, dose response (AID 624489); assay type: functional; conditions: A-375;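 further: actives are compounds lowering A375 viability meaning general cytotoxicity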
[29] = Late-stage results from the probe development effort to identify antagonists of arginine vasopressin receptor 1a (AVPR1a): fluorescence-based cell-based dose response AVPR1a inhibition assay.; assay type: functional
[30] = biological target: Vasopressin V1b receptor (Homo sapiens, UniProt P47901); assay: Late-stage results from the probe development effort to identify antagonists of arginine vasopressin receptor 1a (AVPR1a): fluorescence-based cell-based dose response AVPR1b inhibition counterscreen assay.; assay type: functional
Vasopressin V1b receptor, sequence (P47901 whole entry): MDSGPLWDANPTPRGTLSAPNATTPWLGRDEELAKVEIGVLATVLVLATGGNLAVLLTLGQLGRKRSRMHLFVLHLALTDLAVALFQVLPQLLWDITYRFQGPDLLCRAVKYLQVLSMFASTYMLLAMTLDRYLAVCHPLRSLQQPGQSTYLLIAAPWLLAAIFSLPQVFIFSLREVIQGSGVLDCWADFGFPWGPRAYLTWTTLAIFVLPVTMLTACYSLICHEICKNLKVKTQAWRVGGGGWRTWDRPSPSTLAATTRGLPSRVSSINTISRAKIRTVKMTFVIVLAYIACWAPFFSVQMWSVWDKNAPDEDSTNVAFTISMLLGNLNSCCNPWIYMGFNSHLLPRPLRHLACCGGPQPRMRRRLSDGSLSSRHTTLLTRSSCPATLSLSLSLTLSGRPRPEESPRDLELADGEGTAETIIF

[31] = biological target: Vasopressin V2 receptor (Homo sapiens, UniProt P30518); assay: Late-stage results from the probe development effort to identify antagonists of arginine vasopressin receptor 1a (AVPR1a): fluorescence-based cell-based dose response AVPR2 inhibition counterscreen assay.; assay type: functional
Vasopressin V2 receptor, sequence (P30518 whole entry): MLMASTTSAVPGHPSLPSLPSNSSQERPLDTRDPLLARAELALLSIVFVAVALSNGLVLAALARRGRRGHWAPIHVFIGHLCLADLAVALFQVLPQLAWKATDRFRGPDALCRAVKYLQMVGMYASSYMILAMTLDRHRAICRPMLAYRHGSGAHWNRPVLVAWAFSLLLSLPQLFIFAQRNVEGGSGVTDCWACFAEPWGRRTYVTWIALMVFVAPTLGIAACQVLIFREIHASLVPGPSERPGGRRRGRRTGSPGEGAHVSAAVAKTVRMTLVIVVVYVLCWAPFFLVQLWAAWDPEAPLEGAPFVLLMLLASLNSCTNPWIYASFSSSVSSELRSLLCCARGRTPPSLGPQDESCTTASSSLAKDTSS

[32] = Late-stage results from the probe development effort to identify antagonists of arginine vasopressin receptor 1a (AVPR1a): fluorescence-based cell-based dose response OXTR inhibition counterscreen assay.; assay type: functional
[33] = biological target: Potassium channel subfamily K member 9 (Homo sapiens, UniProt Q9NPC2); assay: KCNK9 flux blockade, concentration-response – cell-based, FluxOR thallium flux, selectivity assay for TASK1 inhibitor project, SAR follow-up (AID 652211); assay type: functional;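 further: potency is for inhibitors of the channel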
Potassium channel subfamily K member 9, sequence (Q9NPC2 whole entry): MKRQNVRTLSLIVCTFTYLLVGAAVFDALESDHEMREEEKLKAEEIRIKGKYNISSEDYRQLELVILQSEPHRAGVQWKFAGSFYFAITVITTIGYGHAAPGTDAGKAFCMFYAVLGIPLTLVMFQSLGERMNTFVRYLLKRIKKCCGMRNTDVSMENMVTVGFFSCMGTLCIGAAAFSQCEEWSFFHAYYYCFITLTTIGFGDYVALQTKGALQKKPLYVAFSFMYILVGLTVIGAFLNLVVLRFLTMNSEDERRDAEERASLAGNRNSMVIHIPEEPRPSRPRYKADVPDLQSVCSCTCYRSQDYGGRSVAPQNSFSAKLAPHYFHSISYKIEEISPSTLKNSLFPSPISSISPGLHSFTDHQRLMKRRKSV

[34] = biological target: Potassium channel subfamily K member 3 (Homo sapiens, UniProt O14649); assay: inhibition of human KCNK3 channel flux – CHO cells, FluxOR thallium flux, SAR follow-up (AID 652212); assay type: functional
Potassium channel subfamily K member 3, sequence (O14649 whole entry): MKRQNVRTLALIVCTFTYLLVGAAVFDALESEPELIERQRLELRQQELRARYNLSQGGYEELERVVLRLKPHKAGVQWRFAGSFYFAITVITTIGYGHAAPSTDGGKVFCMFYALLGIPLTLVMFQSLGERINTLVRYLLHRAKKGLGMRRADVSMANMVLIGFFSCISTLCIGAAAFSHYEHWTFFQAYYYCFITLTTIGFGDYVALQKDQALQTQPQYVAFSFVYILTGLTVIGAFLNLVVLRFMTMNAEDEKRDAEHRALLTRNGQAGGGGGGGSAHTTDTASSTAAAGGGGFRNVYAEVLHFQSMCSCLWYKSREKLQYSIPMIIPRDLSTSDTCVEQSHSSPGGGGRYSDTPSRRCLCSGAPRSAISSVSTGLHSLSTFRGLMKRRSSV

[35] = biological target: NAD-dependent protein deacylase sirtuin-5, mitochondrial (Homo sapiens, UniProt Q9NXA8); assay: blockers of sirtuin-5 peptide desuccinylation – biochemical, fluorescence imaging, cherry-pick, set 6, dose response (AID 720597)
NAD-dependent protein deacylase sirtuin-5, mitochondrial, sequence (Q9NXA8 whole entry, the tested form may be a part): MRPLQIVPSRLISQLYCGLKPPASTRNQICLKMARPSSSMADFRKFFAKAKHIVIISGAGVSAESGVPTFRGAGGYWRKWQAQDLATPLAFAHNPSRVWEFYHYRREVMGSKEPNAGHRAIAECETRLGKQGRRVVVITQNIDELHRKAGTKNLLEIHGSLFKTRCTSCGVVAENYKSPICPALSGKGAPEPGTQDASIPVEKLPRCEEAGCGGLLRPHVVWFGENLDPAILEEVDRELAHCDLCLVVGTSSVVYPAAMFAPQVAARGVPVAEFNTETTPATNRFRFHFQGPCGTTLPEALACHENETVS

[36] = blockers of HIV-1 envelope-mediated cell-cell fusion – cherry-pick, dose response (AID 652057); assay type: functional, cell-based
[37] = blockers of HIV-1 ZM109 envelope-driven cell-cell fusion – HeLa effector, CEM target cells, luciferase, cherry-pick, dose response (AID 652058); assay type: functional, cell-based;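 further: luciferase signal from HIV-1 Env mediated cell-cell fusion of effector and target cells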
[38] = HIV-1 AD8 envelope cell-cell fusion blockers – cherry-pick, dose response (AID 652062); assay type: functional, cell-based;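 further: luciferase signal from cell-cell fusion driven by HIV-1 clade B AD8 Env; potency is for inhibitors of fusion seen as a drop in luminescence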
[39] = viability loss in CEM21 cells – cell-based, plate reader, dry powder, cytotoxicity control, dose response (AID 687026); assay type: functional

In the case of `Cc1cc(Cl)ccc1OCCCC(=O)NO`, the IC50 [1] is reported as 43.1 µM (active), the CC50 [2] is reported as 29.4 µM (active) and the CC50 [3] is reported as 18.9 µM (active). For the same compound, the IC50 [4] was 27.9 µM (active) and the IC50 [5] was 1.59 µM (active).
With `C[C@H]1CN([C@@H](C)CO)C(=O)c2cc(NC(=O)CCCN(C)C)ccc2O[C@@H]1CN(C)Cc1ccc(-c2ccccc2)cc1` the AC50 [6] was > 70 µM (inactive).
For `CCOc1ccc(Cn2nnc(C(=O)Nc3cc(OC)cc(OC)c3)c2N)cc1`, the AC50 [7] was 5.3 µM (active), the AC50 [8] was 26.9 µM (active) and the AC50 [9] was 9.37 µM (active). For the same compound, the AC50 [10] was 38.5 µM (active).
In the case of `CN1CCN(C)/C(=N/c2ccc(C#N)cc2C(=O)Nc2cccc(F)c2)C1`, the IC50 [11] is reported as 0.84 µM (active).
In the case of `C[C@@H]1CCCCO[C@@H](CN(C)Cc2ccccc2)[C@H](C)CN([C@@H](C)CO)C(=O)c2cc(NC(=O)Nc3ccc(C(F)(F)F)cc3)ccc2O1`, the AC50 [12] is reported as 10.8 µM (active), the AC50 [13] is reported as 44.6 µM (active) and the AC50 [14] is reported as 23.1 µM (active). The AC50 [15] was 47.9 µM (active) and the AC50 [16] was 42.2 µM (active).
For `CCCN=C(S)Nc1ccc(Nc2ccccc2)cc1`, the IC50 [17] was 82.4 µM (active) and the Ki [18] was > 66.7 µM (inactive).
With `Cc1ccccc1Nc1nc(N)c2ccccc2n1` the EC50 [19] was 1.26 µM (active), the EC50 [20] was 3.1 µM (active) and the AC50 [21] was 26 µM (active).
For `COC(=O)c1cc(Br)cnc1N1CCC(N[C@@H]2CCCC[C@H]2O)CC1`, the IC50 [22] was 3.36 µM (active) and the IC50 [23] was 2.8 µM (active).
With `O=C(Nc1nc(-c2cc3ccccc3o2)cs1)c1ccc(S(=O)(=O)N2CCCC2)cc1` the EC50 [24] was 4.21 µM (active), the EC50 [25] was > 30 µM (not active) and the AC50 [26] was 10.9 µM (active).
For `O=C1C(Nc2ccccc2)=C(N2CCSCC2)C(=O)c2ccccc21`, the AC50 [27] was > 70 µM (inactive) and the AC50 [28] was 69.3 µM (active).
In the case of `N#Cc1cccnc1N1CCC(C(=O)N(CC2CC2)c2ccc(Cl)cc2)CC1`, the IC50 [29] is reported as 0.067 µM (active), the IC50 [30] is reported as 14 µM (inactive) and the IC50 [31] is reported as 24.4 µM (inactive). The IC50 [32] was 6.8 µM (active).
With `CCOc1cccc(NC(=O)c2cccc(NC(=O)C3CCCC3)c2)c1` the IC50 [33] was 4.07 µM (active) and the IC50 [34] was 0.491 µM (active).
For `C[C@@H]1CN([C@@H](C)CO)C(=O)c2cc(NS(C)(=O)=O)ccc2O[C@@H](C)CCCCO[C@H]1CN(C)Cc1ccc(C(F)(F)F)cc1`, the AC50 [35] was > 30 µM (inactive).
For `Cc1ccc(S(=O)(=O)Nc2cccc3c2O[C@@H](CN(C)Cc2ccc(Cl)c(Cl)c2)[C@@H](C)CN([C@H](C)CO)C3=O)cc1`, the AC50 [36] was 12.1 µM (active), the AC50 [37] was 2.75 µM (active) and the AC50 [38] was 65.4 µM (active). The AC50 [39] was 19.2 µM (active).
